The values that follow come from patent publication US10085983B2, “Azabicyclo derivatives, process for preparation thereof and medical use thereof” (Shanghai Haiyan Pharmaceutical Technology Co., Ltd., priority 2014, dated 2018).

A short description of data set [1]: Stability of compound CC0922. The format is physicochemical.
In a further data set the test system is H1975 cells. Description: Cell growth inhibition by MTT assay, H1975 cells.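 As to all read-outs here: MTT read-out in 96-well plates after 72 h compound exposure of H1975 and A431 cells, with selectivity given as the A431 IC50 divided by the H1975 IC50.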 The data set is classed as cell-based. Particulars: for IC50: MTT assay, 72 hours; for Selective inhibitory activity against cell growth [IC50 (A431 cell)/IC50 (H1975 cell)]: ratio of MTT IC50 values. On the technique in general: Tetrazolium dyes change colour on reduction, which living cells bring about.

A further data set has as its system NIH3T3 cells. Description: Toxicity test on NIH3T3 cells by MTT assay. The format is cell-based. Particulars: 72 hours.
In data set [2] the target is T790M/L858R double mutant EGFR kinase (Homo sapiens (Human), UniProt P00533, L858R/T790M). Kind of data set: z'-lyte assay of inhibitory activity on T790M/L858R double mutant EGFR kinase. The format is biochemical. As to conditions: for Selective inhibitory activity against enzymes [IC50 (EGFR WT)/IC50 (T790M/L858R)]: ratio of enzyme IC50 values; for IC50: z'-lyte assay, 25 μM ATP.

The target of data set [3] is EGFR phosphorylation in A431 (EGFR wild-type) cells (Homo sapiens (Human), UniProt P00533). Description: Inhibition of EGFR phosphorylation in A431 cells (ELISA). Particulars: 1 h compound treatment, EGF stimulation, read-out: A431 cell (IC50/μM). The data set is classed as cell-based. A general note: ELISA stands for enzyme-linked immunosorbent assay.
Method: (§1) In the following methods, the reagents used, the preparation methods of solutions, the cell treatment and the preparation steps of the lysis solution, as well as the ELISA assay steps, were carried out according to the instructions of R&D DYC3570, R&D DYC1095E and R&D DYC1095BE.
I. Reagents and Solutions
(§2) Cell lysis solution: Cell lysis buffer+10 μg/mL Aprotinin (Sigma)+10 μg/mL Leupeptin (Sigma), prepared on site.
(§3) Wash buffer: PBS buffer containing 0.05% (v/v) Tween-20.
(§4) Blocking solution: PBS buffer containing 1% (w/v) BSA.
3.1 A431 Cell Treatment and Testing Procedures
(1) A431 cells (purchased from the Cell Bank of the Type Culture Collection Committee, Chinese Academy of Sciences) were seeded in 96-well plates at a density of 1×10^4/well in 90 μl of DMEM medium containing 10% FBS and cultured at 37° C. in 5% CO2 overnight.
(2) The A431 cell culture medium was replaced with 90 μl of serum-free DMEM medium and the plate was cultured overnight.
(3) The compound to be tested was diluted according to the drug dilution method in MTT assay. 10 μL of the diluted compound or diluted DMSO was added to the corresponding wells of the cell culture plate, and the final concentration of DMSO was 0.5%. The plate was cultured at 37° C. in 5% CO2 for 1 hour. […] The cells without EGF and drug treatment were used as cell control, and the cells treated with EGF without drugs were used as EGF control.
(4) The medium was removed and then 100 μL of the cell lysis solution was added. The plate was sealed and placed in a refrigerator at −80° C. overnight.
The assay was conducted according to the instructions given in R&D DYC3570E.
(1) R&D capture antibody (DYC3570E) was diluted with PBS in the proportion of 1:180.
(§5) (2) The plate was washed 3 times with 360 μL of the wash buffer.
(3) 200 μL of the blocking solution was added and the plate was incubated at 25° C. with shaking for 2 hours.
(4) The plate was washed 3 times with 360 μL of wash buffer.
(§6) (5) 40 μL of cell lysis buffer and 60 μL of cell lysis solution were added and the plate was incubated at 25° C. with shaking for 2 hours.
(§7) (6) The plate was washed 3 times with 360 μL of the wash buffer.
(§8) (7) The detection antibody was diluted with the detection antibody diluent in the proportion specified in the instructions of the kit. 100 μL of the diluted antibody was added to each well and the plate was incubated at 25° C. with shaking in dark for 1 h.
(8) The plate was washed 3 times with 360 μL of the wash buffer.
(9) A reagent and B reagent in TMB substrate (R&D DY999) were mixed in 1:1. 100 μL of the mixture was added to each well and incubated in dark at 25° C. with shaking for 20 min.
(§9) (10) 50 μL of 2N H2SO4 was added to each well.
(11) The plate was read with a microplate reader (Thermo Multiskan K3). OD 450 values and OD570 values of the cell control, blank control, and drug treatment wells were measured. ODEGF, ODdrug and ODcell were obtained by subtracting the corresponding OD570 value from the OD 450 value of the same well.
3.3 Data Analysis Inhibition rate (%)=100%×(ODEGF−ODdrug)/(ODEGF−ODcell)
The target in data set [4] is EGFR phosphorylation in H1975 (EGFR T790M mutant) cells (Homo sapiens (Human), UniProt P00533, L858R/T790M). Kind of data set: Inhibition of EGFR phosphorylation in H1975 cells (ELISA).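 As to all read-outs here: Phospho-EGFR in cell lysates measured by capture-antibody ELISA with TMB substrate after compound exposure, cells given DMSO alone (0.5% final) serving as control.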 As to conditions: for IC50: ELISA of EGFR phosphorylation, 1 h compound treatment, read-out: H1975 cell (IC50/μM); for Selective inhibitory activity against targets at the cell level [IC50 (A431 cell)/IC50 (H1975 cell)]: ratio of ELISA IC50 values. The format is cell-based.
Method: as §1, §2, §3, §4
(1) H1975 cells (purchased from the Cell Bank of the Type Culture Collection Committee, Chinese Academy of Sciences) were seeded into 96-well plates at a density of 1×10^4/well, each cell containing 90 μl of RPMI1640 medium with 10% (V/V) FBS, and cultured overnight at 37° C. in 5% (v/v) CO2.
(2) The compounds to be tested were diluted in accordance with the drug dilution method in the MTT assay. 10 μL of the diluted compound or diluted DMSO was added to the corresponding wells of the cell culture plate, and the final concentration of DMSO was 0.5% (V/V). The plate was cultured at 37° C. in 5% (v/v) CO2 for 1 h. The cell culture system treated with DMSO alone was used as cell control.
(3) The medium was removed and then 100 μL of cell lysis solution was added. The plate was sealed and placed in a refrigerator at −80° C. overnight. The cell lysis buffer was used as blank control.
The assay was conducted according to the instructions given in R&D DYC1095E or R&D DYC1095BE.
(1) R&D capture antibody ((DYC1095BE or DYC1095E)) was diluted with PBS in the proportion of 1:180.
as §5
(3) 300 μL of the blocking solution was added and the plate was incubated at 25° C. with shaking for 2 hours.
(4) The plate was washed 3 times with 360 μL of the wash buffer.
as §6, §7, §8
(8) The plate was washed 3 times with 360 μL of wash buffer.
(9) A reagent and B reagent in the TMB substrate (R&D DY999) were mixed in 1:1. 100 μL of the mixture was added to each well and incubated in dark at 25° C. with shaking for 20 min.
as §9
(11) The plate was read with a microplate reader (Thermo Multiskan K3). OD 450 values and OD570 values of the cell control, blank control, and drug treatment wells were measured. ODcell, ODblank and ODdrug treatment were obtained by subtracting the corresponding OD570 value from the OD 450 value of the same well.
2.3 Data Analysis Inhibition rate (%)=100%×(ODcell−ODdrug treatment)/(ODcell−ODblank)

The next data set deals with wild-type EGFR kinase (Homo sapiens (Human), UniProt P00533). Particulars: read-out: EGFR WT (IC50/μM); z'-lyte assay, 10 μM ATP.
A further data set relates to A431 cells. Description: Cell growth inhibition by MTT assay, A431 cells. The format is cell-based. Particulars: 72 hours.
The test system of data set [5] is T790M mutant cell line H1975. As to conditions: background statement; cited from earlier work.

Sequence of T790M/L858R double mutant EGFR kinase (P00533 25-1210 T790M/L858R): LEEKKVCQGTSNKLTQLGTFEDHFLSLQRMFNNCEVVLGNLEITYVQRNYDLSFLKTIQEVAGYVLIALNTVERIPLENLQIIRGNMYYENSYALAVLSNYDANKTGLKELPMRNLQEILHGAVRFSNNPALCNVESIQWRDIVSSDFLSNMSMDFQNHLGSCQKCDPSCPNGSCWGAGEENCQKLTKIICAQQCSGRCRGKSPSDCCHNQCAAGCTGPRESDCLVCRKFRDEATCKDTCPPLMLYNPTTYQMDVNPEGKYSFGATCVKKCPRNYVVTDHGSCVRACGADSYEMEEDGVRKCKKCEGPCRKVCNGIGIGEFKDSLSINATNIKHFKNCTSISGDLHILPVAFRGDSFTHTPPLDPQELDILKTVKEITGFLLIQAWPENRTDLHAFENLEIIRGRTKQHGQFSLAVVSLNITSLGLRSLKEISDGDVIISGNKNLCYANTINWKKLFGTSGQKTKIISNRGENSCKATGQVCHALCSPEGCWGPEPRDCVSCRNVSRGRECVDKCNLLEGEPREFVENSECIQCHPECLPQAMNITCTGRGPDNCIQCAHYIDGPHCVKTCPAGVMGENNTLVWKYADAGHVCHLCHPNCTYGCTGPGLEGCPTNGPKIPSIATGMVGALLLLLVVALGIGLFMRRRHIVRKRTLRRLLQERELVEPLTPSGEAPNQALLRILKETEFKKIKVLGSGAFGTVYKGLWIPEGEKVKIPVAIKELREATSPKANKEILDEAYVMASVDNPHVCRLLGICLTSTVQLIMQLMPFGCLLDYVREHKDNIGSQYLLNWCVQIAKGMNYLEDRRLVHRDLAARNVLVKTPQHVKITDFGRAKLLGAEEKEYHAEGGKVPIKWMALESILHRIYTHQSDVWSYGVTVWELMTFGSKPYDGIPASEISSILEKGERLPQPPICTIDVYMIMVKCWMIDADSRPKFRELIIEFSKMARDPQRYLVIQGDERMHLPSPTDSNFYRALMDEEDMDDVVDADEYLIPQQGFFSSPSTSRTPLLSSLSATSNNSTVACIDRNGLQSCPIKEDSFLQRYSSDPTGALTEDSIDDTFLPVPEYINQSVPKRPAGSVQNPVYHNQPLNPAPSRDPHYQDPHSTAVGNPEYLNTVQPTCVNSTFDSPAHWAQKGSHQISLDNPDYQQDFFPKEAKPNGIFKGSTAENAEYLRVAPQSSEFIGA
Sequence of EGFR phosphorylation in H1975 (EGFR T790M mutant) cells (P00533 25-1210 T790M/L858R): as above
Sequence of EGFR phosphorylation in A431 (EGFR wild-type) cells (P00533 25-1210): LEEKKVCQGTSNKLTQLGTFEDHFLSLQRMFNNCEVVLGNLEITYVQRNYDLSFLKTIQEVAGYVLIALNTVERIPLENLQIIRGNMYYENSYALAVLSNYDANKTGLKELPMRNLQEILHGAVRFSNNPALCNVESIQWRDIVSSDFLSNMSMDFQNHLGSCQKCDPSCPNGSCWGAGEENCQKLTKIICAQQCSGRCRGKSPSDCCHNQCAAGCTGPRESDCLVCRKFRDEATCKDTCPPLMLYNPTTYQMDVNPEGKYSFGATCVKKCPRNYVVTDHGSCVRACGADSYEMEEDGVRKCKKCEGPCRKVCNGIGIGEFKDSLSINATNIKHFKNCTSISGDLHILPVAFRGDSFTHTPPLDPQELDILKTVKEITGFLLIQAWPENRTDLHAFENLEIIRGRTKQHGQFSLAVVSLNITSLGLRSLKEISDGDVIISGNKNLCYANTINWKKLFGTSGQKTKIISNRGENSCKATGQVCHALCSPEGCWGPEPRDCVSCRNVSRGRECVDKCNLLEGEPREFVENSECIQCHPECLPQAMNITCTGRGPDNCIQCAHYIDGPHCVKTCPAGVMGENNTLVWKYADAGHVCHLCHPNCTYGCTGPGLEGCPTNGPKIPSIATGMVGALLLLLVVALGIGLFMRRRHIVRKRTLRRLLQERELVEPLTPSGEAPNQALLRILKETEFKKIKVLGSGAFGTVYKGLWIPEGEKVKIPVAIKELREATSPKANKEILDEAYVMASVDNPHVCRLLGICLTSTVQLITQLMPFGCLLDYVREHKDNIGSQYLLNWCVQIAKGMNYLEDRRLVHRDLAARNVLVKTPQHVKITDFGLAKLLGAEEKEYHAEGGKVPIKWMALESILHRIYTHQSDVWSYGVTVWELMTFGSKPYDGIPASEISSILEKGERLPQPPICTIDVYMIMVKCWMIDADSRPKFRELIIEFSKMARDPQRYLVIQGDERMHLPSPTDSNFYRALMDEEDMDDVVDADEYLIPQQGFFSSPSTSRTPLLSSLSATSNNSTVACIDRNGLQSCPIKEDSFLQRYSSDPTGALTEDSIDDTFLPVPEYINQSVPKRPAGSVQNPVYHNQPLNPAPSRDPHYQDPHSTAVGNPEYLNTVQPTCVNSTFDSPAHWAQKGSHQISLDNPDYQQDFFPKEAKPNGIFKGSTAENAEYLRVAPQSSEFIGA
Sequence of wild-type EGFR kinase (P00533 25-1210): as above
Method for NIH3T3 cells: The steps of the MTT assay were carried out using methods well known to those skilled in the art, and all the reagents used in the methods are commercially available.
After the first wash, another 1.5 mL of trypsin/EDTA was added to digest the adherent cells until the cells detached. Then 3.5 mL of the culture medium was added to terminate the digestion. The digested cell suspension was transferred to a 15 mL centrifuge tube and centrifuged at 1300 rpm for 3 minutes. The supernatant was discarded and the cells were resuspended in fresh medium. The cells were then counted and diluted to the following concentrations: 27,800 cells per milliliter of H1975 cells, 33,300 cells per milliliter of A431 cells and NIH3T3 cells (purchased from the Cell Bank of the Type Culture Collection Committee, Chinese Academy of Sciences).
After the drug was added, the cells were incubated in an incubator for 72 hours. 10 μL of 5 mg/ml MTT (Sigma, M5655) solution was added to each well. The 96-well plate was then incubated in a 37° C. and 5% CO2 incubator for 4 h.
The plate was then centrifuged at 2000 rpm for 5 min. After the supernatant was removed, 150 μl of DMSO was added to each well and the plate was shaken in a shaker until all crystal violet was dissolved.
Method for wild-type EGFR kinase: All reagents used in the following z′-lyte assay were purchased from Invitrogen.
The working concentrations of each component in 10 μL wild-type EGFR kinase reaction system were: 10 μM ATP, 0.8 ng/μL wild-type EGFR kinase, 2 μM Tyr04 substrate (Invitrogen, PV3193). The concentration of DMSO after addition of the compound to be tested was 2 vol %.
10 mM drug stock solution was dissolved at room temperature and gradiently diluted to a final concentration of 4-0.002 μM with 8 vol % DMSO solution. […] Then 2.5 μl of ATP was added to initiate the reaction. Wherein, ATP was replaced by the reaction buffer in well C1, no drug was added to well C2, and the phosphorylated substrate was added to well C3 according to the instructions. The mixture was allowed to react at 25° C. in a shaker in dark for 60 min. 5 μL of Development Reagent B (Invitrogen, diluted with TR-FRET dilution buffer) was added and allowed to react at room temperature in the shaker for 60 minutes.
The inhibition rate was calculated according to the following method (refer to the instructions of Invitrogen, PV3193):
1. ER=Coumarin Emission (450 nm)/Fluorescein Emission (520 nm)
The half-inhibitory concentration IC50 was obtained through fitting calculation by using XLFIT 5.0 software (IDBS, UK).

Consider `C=CC(=O)Nc1cccc(-c2ccc3cnc(Nc4ccc(N(C)CCN(C)C)cc4OC)nn23)c1` [CC0922], for which the stability result in data set [1] is “very unstable”.

Consider `C=CC(=O)Nc1cc(Nc2ncc3ccc(-c4cnn(C)c4)n3n2)c(OC)cc1N1CCN(C)CC1` [Compound J-4, N-(4-methoxy-5-(7-(1-methyl-1H-pyrazol-4-yl)pyrrolo[1,2-f][1,2,4]triazin-2-ylamino)-2-(4-methyl-1-yl)phenyl)acrylamide], for which the IC50 in the data set with H1975 cells amounted to 0.014 µM; with NIH3T3 cells, 3.65 µM; in [2], 0.002 µM; in [3] it was 1.8 µM; in data set [4] it was 0.004 µM; at wild-type EGFR kinase, 0.035 µM. Besides, in the data set with A431 cells, the IC50 was 0.461 µM. In the data set on H1975 cells, the “Selective inhibitory activity against cell growth [IC50 (A431 cell)/IC50 (H1975 cell)]” value amounted to 32.9. Further, the “Selective inhibitory activity against enzymes [IC50 (EGFR WT)/IC50 (T790M/L858R)]” value in [2] worked out at 17.5. For the same compound, the “Selective inhibitory activity against targets at the cell level [IC50 (A431 cell)/IC50 (H1975 cell)]” value in data set [4] turned out to be 450.

Take `C=CC(=O)Nc1cc(Nc2ncc3ccc(C4=CCCCC4)n3n2)c(OC)cc1N(C)CCN(C)C` [Compound J-5, N-(5(7-cyclohexenyl-pyrrolo[1,2-f][1,2,4]triazin-2-ylamino)-2-((2-(dimethylamino)ethyl)(methyl)amino)-4-methoxyphenyl)acrylamide]: the IC50 worked out at 0.023 µM in the data set with H1975 cells; 2.82 µM in the data set on NIH3T3 cells; 0.003 µM in [2]; 0.208 µM in [3]; 0.106 µM in data set [4]; 0.009 µM on wild-type EGFR kinase. Besides, the IC50 in the data set with A431 cells was 0.354 µM. Besides, the “Selective inhibitory activity against cell growth [IC50 (A431 cell)/IC50 (H1975 cell)]” value with H1975 cells worked out at 15.4. The “Selective inhibitory activity against enzymes [IC50 (EGFR WT)/IC50 (T790M/L858R)]” value in data set [2] was 3. For the same compound, the “Selective inhibitory activity against targets at the cell level [IC50 (A431 cell)/IC50 (H1975 cell)]” value in [4] is reported as 2.

Take `C=CC(=O)Nc1cc(Nc2ncc3ccc(-c4cccnc4)n3n2)c(OC)cc1N(C)CCN(C)C` [Compound J-6, N-(2-((2-(dimethylamino)ethyl)(methyl)amino)-4-methoxy-5-(7-(pyridin-3-yl)pyrrolo[1,2-f][1,2,4]triazin-2-ylamino)phenyl)acrylamide]: the IC50 amounted to 0.028 µM with H1975 cells; 8.21 µM with NIH3T3 cells; 0.0024 µM in data set [2]; 0.309 µM in data set [3]; 0.027 µM in data set [4]; 0.013 µM at wild-type EGFR kinase. This compound showed an IC50 in the data set on A431 cells of 0.427 µM. Besides, the “Selective inhibitory activity against cell growth [IC50 (A431 cell)/IC50 (H1975 cell)]” value in the data set with H1975 cells worked out at 15.3. In addition, in data set [2], the “Selective inhibitory activity against enzymes [IC50 (EGFR WT)/IC50 (T790M/L858R)]” value came to 5.42. In addition, the “Selective inhibitory activity against targets at the cell level [IC50 (A431 cell)/IC50 (H1975 cell)]” value in data set [4] was 11.4.

For the compound `C=CC(=O)Nc1cc(Nc2ncc3ccc(C)n3n2)c(OC)cc1N(C)CCN(C)C` [Compound J-9, N-(2-((2-(dimethylamino)ethyl)(methyl)amino)-4-methoxy-5-(7-methylpyrrolo[1,2-f][1,2,4]triazin-2-ylamino)phenyl)acrylamide], the IC50 with H1975 cells was 0.125 µM; with NIH3T3 cells, over 10 µM; in [2], 0.016 µM; in data set [3] it was 0.92 µM; in data set [4], 0.186 µM; on wild-type EGFR kinase, 0.105 µM. This compound yielded an IC50 in the data set with A431 cells of 1.65 µM. Besides, the “Selective inhibitory activity against cell growth [IC50 (A431 cell)/IC50 (H1975 cell)]” value with H1975 cells was determined as 13.2. Further, in data set [2], the “Selective inhibitory activity against enzymes [IC50 (EGFR WT)/IC50 (T790M/L858R)]” value was found to be 6.6. Also, the “Selective inhibitory activity against targets at the cell level [IC50 (A431 cell)/IC50 (H1975 cell)]” value in data set [4] was found to be 5.

`C=CC(=O)Nc1cc(Nc2ncc3ccc(-c4ccccc4)n3n2)c(OC)cc1N(C)CCN(C)C` [Compound J-11, N-(2-((2-(dimethylamino)ethyl)(methyl)amino)-4-methoxy-5-(7-phenylpyrrolo[1,2-f][1,2,4]triazin-2-ylamino)phenyl)acrylamide]: the IC50 in the data set with H1975 cells came out at 0.026 µM; in the data set on NIH3T3 cells, 5.57 µM; in data set [2], 0.0024 µM; in data set [3], 0.237 µM; in data set [4], 0.063 µM; at wild-type EGFR kinase, 0.01 µM. Moreover, the IC50 in the data set with A431 cells was determined as 0.621 µM. The “Selective inhibitory activity against cell growth [IC50 (A431 cell)/IC50 (H1975 cell)]” value in the data set on H1975 cells is 23.9. The “Selective inhibitory activity against enzymes [IC50 (EGFR WT)/IC50 (T790M/L858R)]” value in data set [2] turned out to be 4.2. For the same compound, in data set [4], the “Selective inhibitory activity against targets at the cell level [IC50 (A431 cell)/IC50 (H1975 cell)]” value amounted to 3.8.

Regarding `C=CC(=O)Nc1cc(Nc2ncc3ccc(-c4ccn(C)c4)n3n2)c(OC)cc1N(C)CCN(C)C` [Compound J-12, N-(2-((2-(dimethylamino)ethyl)(methyl)amino)-4-methoxy-5-(7-(1-methyl-1H-pyrrol-3-yl)pyrrolo[1,2-f][1,2,4]triazin-2-ylamino)phenyl)acrylamide], the IC50 with H1975 cells was found to be 0.009 µM; with NIH3T3 cells, 4.73 µM; in data set [2] it was 0.0019 µM; in data set [3] it was 0.023 µM; in data set [4], 0.015 µM; on wild-type EGFR kinase, 0.008 µM. This compound also returned an IC50 with A431 cells of 0.332 µM. Further, the “Selective inhibitory activity against cell growth [IC50 (A431 cell)/IC50 (H1975 cell)]” value in the data set on H1975 cells is recorded as 36.9. In addition, the “Selective inhibitory activity against enzymes [IC50 (EGFR WT)/IC50 (T790M/L858R)]” value in [2] stood at 4.2. In data set [4], the “Selective inhibitory activity against targets at the cell level [IC50 (A431 cell)/IC50 (H1975 cell)]” value stood at 1.5.

Take `C=CC(=O)Nc1cc(Nc2ncc3ccc(-c4cnc5ccccc5c4)n3n2)c(OC)cc1N1CCC(N(C)C)CC1` [Compound J-13, N-(2-(4-(dimethylamino)piperidin-1-yl)-4-methoxy-5-(7-(quinolin-3-yl)pyrrolo[1,2-f][1,2,4]triazin-2-ylamino)phenyl)acrylamide]: the IC50 worked out at 0.013 µM in the data set on H1975 cells; 2.97 µM in the data set with NIH3T3 cells; 0.005 µM in data set [2]; 0.301 µM in data set [3]; 0.043 µM in data set [4]; 0.021 µM on wild-type EGFR kinase. Further, the IC50 with A431 cells is 0.369 µM. Further, the “Selective inhibitory activity against cell growth [IC50 (A431 cell)/IC50 (H1975 cell)]” value in the data set with H1975 cells is on record as 28.4. Besides, the “Selective inhibitory activity against enzymes [IC50 (EGFR WT)/IC50 (T790M/L858R)]” value in [2] was 4.2. Moreover, the “Selective inhibitory activity against targets at the cell level [IC50 (A431 cell)/IC50 (H1975 cell)]” value in data set [4] is 7.

Turning to `C#Cc1cccc(Nc2ncnc3cc(OCCOC)c(OCCOC)cc23)c1` [erlotinib], in data set [5], the “activity in the T790M mutant cell line H1975” value was “greater than 3 uM”.

Regarding `COc1cc2ncnc(Nc3ccc(F)c(Cl)c3)c2cc1OCCCN1CCOCC1` [gefitinib], in data set [5], the “activity in the T790M mutant cell line H1975” value was “greater than 3 uM”.
